Earlier results in patent US20050205101A1, “Combined pharmocological and surgical method and system for the treatment of eye disorders” (priority 2002, published 2005).
Structures can show the parent of a compound that is named as a salt.

How the values were obtained:
emmetropic eye = conditions: typical concentration of about 4%
presbyopic patient = conditions: presbyopia, administration to the eye; Neufeld US 5,488,050
[1] = tested on: intraocular pressure (IOP); conditions: used topically, elevated IOP; van Alphen 1976

CC[C@@H]1C(=O)OC[C@@H]1Cc1cncn1C [Pilocarpine hydrochloride, pilocarpine hydrochloride]
adverse side effect on refraction (emmetropic eye): becomes myopic | near and distant vision (emmetropic eye): enhanced near vision but at the sacrifice of distant vision

CC(=O)Oc1cc(C(C)C)c(OCCN(C)C)cc1C [thymoxamine]
gain in accommodation (accommodation in humans; treated subjects, Zetterstrom 1987): transient gain in accommodation

CC(C)(C)NC[C@H](O)COc1nsnc1N1CCOCC1 [Timolol]
vision of presbyopic subject (presbyopic patient): improved | intraocular pressure (IOP) [1]: lower the IOP | tonic accommodation (accommodation in humans; unfocused eyes, subjects with mean age of 23, Nyberg 1976): net increase in tonic accommodation

CC(C)NCC(O)COc1ccc(CCOCC2CC2)cc1 (centres unmarked) [betaxolol]
intraocular pressure (IOP) [1]: lower the IOP

CC(C)(C)NC[C@H](O)COc1cccc2c1CCCC2=O [levobunolol]
intraocular pressure (IOP) [1]: lower the IOP
